From the NIST ThermoML archive (doi:10.1021/acs.jced.8b00729)
± gives the expanded uncertainty stated by the source.

Details: Gamma attenuation method

C1C[C@@H]2[C@H]3CC[C@H](C3)[C@@H]2C1 [exo-tetrahydrodicyclopentadiene]
Details	mass density [kg/m3]
267.3 K, 1480 kPa, Liquid	961.5 ± 15
267.3 K, 6000 kPa, Liquid	962.3 ± 15
267.9 K, 700 kPa, Liquid	960.4 ± 15
267.9 K, 3060 kPa, Liquid	962.1 ± 15
289.1 K, 6000 kPa, Liquid	952 ± 15
290.2 K, 1480 kPa, Liquid	939.1 ± 15
290.9 K, 700 kPa, Liquid	937.8 ± 15
292.8 K, 3060 kPa, Liquid	940.4 ± 15
307 K, 700 kPa, Liquid	924.7 ± 15
307.5 K, 1480 kPa, Liquid	928.1 ± 15
308.7 K, 3060 kPa, Liquid	930.1 ± 15
309 K, 6000 kPa, Liquid	940.8 ± 15
335.4 K, 6000 kPa, Liquid	918.1 ± 15
336.6 K, 3060 kPa, Liquid	911.5 ± 15
337.1 K, 700 kPa, Liquid	908.7 ± 15
337.2 K, 1480 kPa, Liquid	910.1 ± 15
368.4 K, 700 kPa, Liquid	881.1 ± 15
369.6 K, 1480 kPa, Liquid	884.2 ± 15
371.3 K, 3060 kPa, Liquid	884.3 ± 15
373.9 K, 6000 kPa, Liquid	893.8 ± 15
391.4 K, 6000 kPa, Liquid	883.9 ± 15
391.9 K, 700 kPa, Liquid	861.9 ± 15
394.8 K, 1480 kPa, Liquid	863.2 ± 15
394.8 K, 3060 kPa, Liquid	864.7 ± 15
430.8 K, 6000 kPa, Liquid	850.6 ± 15
431.4 K, 700 kPa, Liquid	824.8 ± 15
431.4 K, 1480 kPa, Liquid	832.6 ± 15
431.4 K, 3060 kPa, Liquid	834.1 ± 15
453.2 K, 3060 kPa, Liquid	820.5 ± 15
453.8 K, 700 kPa, Liquid	801.2 ± 15
454.4 K, 1480 kPa, Liquid	815.4 ± 15
454.6 K, 6000 kPa, Liquid	829.8 ± 15
483.1 K, 1480 kPa, Liquid	796.7 ± 15
483.8 K, 700 kPa, Liquid	779.5 ± 15
485.1 K, 3060 kPa, Liquid	800.4 ± 15
485.9 K, 6000 kPa, Liquid	807 ± 15
510 K, 700 kPa, Liquid	759.3 ± 15
510.1 K, 1480 kPa, Liquid	772.1 ± 16
510.3 K, 3060 kPa, Liquid	783.9 ± 15
512.1 K, 6000 kPa, Liquid	777.4 ± 16
529.9 K, 3060 kPa, Liquid	756 ± 15
530.4 K, 1480 kPa, Liquid	743 ± 15
531.9 K, 6000 kPa, Liquid	752.2 ± 15
532.4 K, 700 kPa, Liquid	737.7 ± 17
562.1 K, 700 kPa, Liquid	646.3 ± 18
563.8 K, 1480 kPa, Liquid	716.9 ± 16
564.1 K, 3060 kPa, Liquid	726.9 ± 16
566.8 K, 6000 kPa, Liquid	719.2 ± 15
603.4 K, 700 kPa, Gas	25.5 ± 5.2
617.6 K, 1480 kPa, Gas	153.4 ± 11
623.8 K, 6000 kPa, Liquid	661.1 ± 16
627.1 K, 3060 kPa, Liquid	633.8 ± 16
651.6 K, 700 kPa, Gas	22.9 ± 5
651.9 K, 3060 kPa, Liquid	590.9 ± 16
652.4 K, 6000 kPa, Liquid	615.5 ± 16
652.9 K, 1480 kPa, Gas	55.3 ± 7.3
681.8 K, 6000 kPa, Liquid	579.7 ± 16
682.7 K, 700 kPa, Gas	29.4 ± 5
683.2 K, 1480 kPa, Gas	57.8 ± 5
685 K, 3060 kPa, Gas	193.2 ± 9.5
714 K, 6000 kPa, Gas	465.2 ± 25
715 K, 3060 kPa, Gas	124.1 ± 7.3
715.8 K, 1480 kPa, Gas	58 ± 5
730.2 K, 700 kPa, Gas	19.5 ± 5
743.7 K, 3060 kPa, Gas	104.8 ± 5.3
743.8 K, 6000 kPa, Gas	256.7 ± 19
744 K, 1480 kPa, Gas	52.4 ± 5
744.7 K, 700 kPa, Gas	19.7 ± 5
771.9 K, 700 kPa, Gas	26.4 ± 5
773.7 K, 1480 kPa, Gas	50.2 ± 5
773.7 K, 6000 kPa, Gas	152.1 ± 8.3
774 K, 3060 kPa, Gas	96.1 ± 5.1
803.3 K, 700 kPa, Gas	24.4 ± 5
803.8 K, 3060 kPa, Gas	87.6 ± 5.1
804 K, 1480 kPa, Gas	47.9 ± 5
804.1 K, 6000 kPa, Gas	142 ± 5.3
833 K, 700 kPa, Gas	25.4 ± 5
833.3 K, 1480 kPa, Gas	52.1 ± 5
833.4 K, 6000 kPa, Gas	120.1 ± 5.2
833.5 K, 3060 kPa, Gas	83.9 ± 5.1
872.2 K, 3060 kPa, Gas	70.8 ± 5.2
872.5 K, 1480 kPa, Gas	46.1 ± 5.1
873.3 K, 700 kPa, Gas	24.4 ± 5
873.4 K, 6000 kPa, Gas	110.1 ± 5.1
